Two compounds from US7816520B2, “5,6-diphenyl-1,2,4-triazinic dimeric derivatives and the use thereof in the form of sun-protective agents” (Pierre Fabre Dermo-Cosmetique, priority 2004, dated 2010) can be followed below.

Several values for one entry are separate records, joined by “and”; a condition that tells them apart may be missing. Equal values may be shown once.

Data set [1] in a line: Solubility study in solvents or excipients used in cosmetics. The format is physicochemical.
The nature of data set [2]: Spectral distribution in UVA and UVB, 290 nm to 400 nm. The format is physicochemical. The settings on record: for Spectral distribution (UV bands absorbed): absorption spectra, FIGS. 1-3; for Absorption peaks: range from 290 nm to 400 nm. The text has this:
The products tested are classified according to spectral distribution in UVA and UVB in a range from 290 nm to 400 nm. It is possible to differentiate them according to their spectral distribution: Products with a narrow spectrum: • Products absorbing in the range between 280 nm and 320 nm (UVB) • Products absorbing in the range between 320 nm and 400 nm (UVA) Products with a broad spectrum: • Products absorbing in UVB (280-320 nm) and UVA-II […] • Products covering UVB and UVA (280-400 nm).

Data set [3] is described as follows: In vitro SPF measurement in a chemical solvent (Diffey and Robson). The settings on record: ethyl acetate, 10 μg/ml, transmittance 290-400 nm. How it is done:
The in vitro methods of determining the protective effectiveness of sun products consist of measuring by transmission spectrophotometry the absorption spectrum of the filter in solution or of the product applied on a substrate with the aim of simulating the surface of the skin. The effectiveness against UVB and/or UVA rays, or the effect on the cutaneous response, are then determined by calculation, taking into account or not the UV radiation action spectrum for the damage considered.
The Sayre/Agin and Diffey/Robson method, used since the 1990s, involves a comparative measurement, with the aid of an integrating-sphere spectroradiometer, of the transition from 290 nm to 400 nm in 5 nm steps, the sample being subjected to UV radiation from a stable known source covering the whole of the UV spectrum (unfiltered xenon).
Diffey and Robson evaluate the erythemal response by the following calculation:
[formula] E(λ)=spectral irradiation in W(m-^2) (nm^−1) at 40° N sun at 20° zenith angle • ε=erythematous capacity
[formula] N(λ)=number of values for a given wavelength
The Diffey and Robson formula makes it possible to determine SPF from the measurement of transmittance between 290 nm and 400 nm. Transmittance is measured in solution in ethyl acetate at a concentration of 10 μg/ml using a UV-visible spectrophotometer (Varian CARY 50 Scan).
[formula] T(λ)=transmittance at wavelength λ

A short description of data set [4]: Spectral characteristics: molar extinction coefficient and specific absorbance (UV spectrophotometry in ethyl acetate). In kind it is physicochemical. The settings on record: 10 μg/ml. From the text:
The calculation of the molar extinction coefficient (ε) is made from the Beer-Lambert law:
[formula] Wherein: • A=absorbance • I0=intensity of the incident light • I=intensity of the transmitted light • ε=molar extinction (or molar absorbance) coefficient in M^−1 cm^−1 • l=path length in cm • c=concentration in mol/l
The molar extinction coefficient can be expressed with respect to a given mass of the product. It thus makes it possible to be able to compare the coefficients of extinction between products for the same given quantity. This quantity is 1% by weight. The molar extinction coefficient thus becomes the specific absorbance (A1cm^1%).
It is expressed as follows:
[formula] Wherein: • A1cm^1%=specific absorbance • ε=molar extinction coefficient • M=molar mass
The spectral characteristics of the compounds in comparison with commercial filters at a concentration of 10 μg/ml are summarized in tables 2-1 and 2-2.
Procedure: The products are dissolved in ethyl acetate to a concentration of 10 μg/ml. The spectra are measured using a dual-beam spectrophotometer (Varian CARY 50 Scan) between 290 nm and 400 nm.

The nature of data set [5]: Photostability in solution in a chemical solvent (Suntest CPS+). The format is physicochemical. The settings on record: 25 μg deposited from methanol, absorbance vs non-irradiated control, in % (unit assumed); for Photostability at 5 MED, mean: Suntest irradiation 5 MED; for Photostability at 10 MED, mean: Suntest irradiation 10 MED. From the text:
A Suntest CPS+(Atlas, Linsengenicht/Altenhasslan, Germany) was used. The Suntest makes it possible to reproduce the solar spectrum and thus to carry out exposures inside at any time without weather constraints.
The radiance of the solar simulator was carefully measured with a spectroradiometer (MSS 2044, Bielefeld, Germany). UVB and UVA intensities were 0.49 mW/cm^2 and 6.32 mW/cm^2, respectively. The MED value defined by COLIPA is 5.6 J/cm^2 in total UV (22). The UV total (UVA+UVB) accounts for 14.8% of the energy delivered by the lamp (power 460 W/m^2). An irradiation dose equivalent to 1 MED corresponds to 37.83 J/cm^2 (in total spectrum) delivered by the lamp.
The Suntest test duration is calculated using the following formula: t=H/E with: • E=illumination energy in W/m^2 • H=irradiation dose in J/m^2 • t=duration of the test in s
The solutions of the compounds are prepared at a concentration of 500 μg/ml in methanol. 50 μl (25 μg) of each solution are deposited in a crystallizer, then irradiated in the Suntest at 5, 10 and/or 20 MED. A non-irradiated control is prepared (deposit of 50 μl of solution and addition of 2.450 ml of methanol). The solvent evaporates during irradiation and the products are taken up in 2.5 ml of methanol. After irradiation, the absorbance of each solution is measured with the UV-visible spectrophotometer (Varian CARY 50 Scan).

Regarding `CC(C)(C)c1ccc(-c2nnc(-c3ccc(-c4nnc(-c5ccc(C(C)(C)C)cc5)c(-c5ccc(C(C)(C)C)cc5)n4)cc3)nc2-c2ccc(C(C)(C)C)cc2)cc1` [WP104, 1,4-bis[5,6-(4,4′-4-di-tert-butyl)-diphenyl-1,2,4-triazin-3-yl]benzene], the “Solubilities: Soluble (solvent in which the compound is soluble)” value in data set [1] (value = solvent) was “DCM and CHCl3 and Toluene and DMSO and Ethyl acetate”. Besides, the “Solubilities: Insoluble (solvent in which the compound is insoluble)” value in data set [1] (value = solvent named in the Insoluble column) was “EtOH and MeOH and 1-Octanol and Acetic acid and Myritol and Transcutol”. For the same compound, in data set [2], the “Spectral distribution (UV bands absorbed)” value was “absorb in UVB and UVA”; the Absorption peaks came to 300 nm. Besides, the SPF in data set [3] is reported as 79.35. Moreover, in data set [4] (UVB band), the “Maximum molar extinction coefficient UVB” value was determined as 90000 M⁻¹ cm⁻¹. Moreover, in data set [4] (A1cm^1%, UVB band), the “Maximum specific absorbance UVB” value is on record as 1176. Also, in data set [4] (the 'at ...' part of the cell), the “Wavelength of maximum molar extinction coefficient UVB” value was “at 300 nm” and the “Wavelength of maximum specific absorbance UVB” value is given as “at 300 nm”. Also, in data set [5], the “Photostability at 5 MED, mean” value was found to be 93.70 and the “Photostability at 10 MED, mean” value is given as 88.55.

`CC(C)CCC(C)(C)c1ccc(-c2nnc(-c3ccc(-c4nnc(-c5ccc(C(C)(C)CCC(C)C)cc5)c(-c5ccc(C(C)(C)CCC(C)C)cc5)n4)cc3)nc2-c2ccc(C(C)(C)CCC(C)C)cc2)cc1` [WP151]: the “Solubility (%)” value in data set [1] (excipient Finsol V NT ® (C12-C15 alkyl benzoate)) was determined as 5%. Further, the “Solubility (%)” value in data set [1] (excipient Isopropyl adipate) was determined as 1%. Also, in data set [1] (excipient Myritol 331 ® (cocoglycerides)), the “Solubility (%)” value is given as 2%. Moreover, the “Solubility (%)” value in data set [1] (excipient PEG400 ® (polyethylene glycol)) came to 0.5%. For the same compound, in data set [2], the “Spectral distribution (UV bands absorbed)” value was “absorb in UVB and UVA”; the Absorption peaks was determined as 340 nm. Also, the SPF in data set [3] was determined as 67.2. Also, in data set [4] (UVA band), the “Maximum molar extinction coefficient UVA” value is 60500 M⁻¹ cm⁻¹. Besides, the “Maximum specific absorbance UVA” value in data set [4] (A1cm^1%, UVA band) was found to be 611. Besides, in data set [4] (the 'at ...' part of the cell), the “Wavelength of maximum molar extinction coefficient UVA” value is listed as “at 340 nm” and the “Wavelength of maximum specific absorbance UVA” value was “at 340 nm”. In addition, in data set [5], the “Photostability at 5 MED, mean” value is given as 76.16 and the “Photostability at 10 MED, mean” value was 70.15.
